US8802597B2, “Herbicidal pyrimidines” (E I du Pont de Nemours and Company, priority 2003, dated 2014)
Like-named read-outs stand apart in the source and are kept apart here.

What was measured:
Assay type in all cases: in vivo
[1] = test system: Surinam grass (Brachiaria decumbens); experiment: Test B pre/postemergence; details: Urochloa decumbens; for pest or weed control at 125 g/ha: 125 g ai/ha; for pest or weed control at 62 g/ha: 62 g ai/ha
Procedure, shortened: (§1)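 Visual rating, 0 (no effect) to 100 (complete control) versus controls, taken 13–15 days after treatment in greenhouse. Compounds formulated in non-phytotoxic solvent plus surfactant; pre: sprayed after seeding; post: plants at 1- to 4-leaf stage, 2–18 cm.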

[2] = test system: barnyardgrass (Echinochloa crus-galli); experiment: Test B pre/postemergence; details: Echinochloa crus-galli, post-emergence, Postemergence, scale 0 to 100 (0 no effect, 100 complete control), read-out: Barnyardgrass plant response rating
Procedure, shortened: as §1

[3] = test system: cocklebur (Xanthium strumarium); experiment: Test B pre/postemergence; details: Xanthium strumarium; for pest or weed control at 62 g/ha: 62 g ai/ha; for pest or weed control at 125 g/ha: 125 g ai/ha
Procedure, shortened: as §1

corn (Zea mays) = experiment: Test B pre/postemergence; details: Zea mays
Procedure, shortened: as §1

[4] = test system: crabgrass (Digitaria sanguinalis); experiment: Test B pre/postemergence; details: Digitaria sanguinalis; for pest or weed control at 62 g/ha: 62 g ai/ha; for pest or weed control at 125 g/ha: 125 g ai/ha
Procedure, shortened: as §1

[5] = test system: giant foxtail (Setaria faberii); experiment: Test B pre/postemergence; details: Setaria faberi; for pest or weed control at 125 g/ha: 125 g ai/ha; for pest or weed control at 62 g/ha: 62 g ai/ha
Procedure, shortened: as §1

[6] = test system: lambsquarters (Chenopodium album); experiment: Test B pre/postemergence; details: Chenopodium album, post-emergence, Postemergence, scale 0 to 100 (0 no effect, 100 complete control), read-out: Lambsquarters plant response rating
Procedure, shortened: as §1

[7] = test system: morningglory (Ipomoea coccinea); experiment: Test B pre/postemergence; details: Ipomoea; for pest or weed control at 62 g/ha: 62 g ai/ha; for pest or weed control at 125 g/ha: 125 g ai/ha
Procedure, shortened: as §1

[8] = test system: pigweed (Amaranthus retroflexus); experiment: Test B pre/postemergence; details: Amaranthus retroflexus, post-emergence, Postemergence, scale 0 to 100 (0 no effect, 100 complete control), read-out: Pigweed plant response rating
Procedure, shortened: as §1

[9] = test system: velvetleaf (Abutilon theophrasti); experiment: Test B pre/postemergence; details: Abutilon theophrasti; for pest or weed control at 62 g/ha: 62 g ai/ha; for pest or weed control at 125 g/ha: 125 g ai/ha
Procedure, shortened: as §1

[10] = test system: wheat (Triticum aestivum); experiment: Test B pre/postemergence; details: Triticum aestivum, scale 0 to 100 (0 no effect, 100 complete control); for plant injury at 62 g/ha: 62 g ai/ha; for plant injury at 125 g/ha: 125 g ai/ha
Procedure, shortened: as §1

[11] = test system: blackgrass (Alopecurus myosuroides); experiment: Test B postemergence; details: Alopecurus myosuroides, post-emergence, 62 g ai/ha, scale 0 to 100 (0 no effect, 100 complete control), read-out: Blackgrass plant response rating
Procedure, shortened: as §1

wild oat (Avena fatua) = experiment: Test B postemergence; details: Avena fatua, post-emergence, scale 0 to 100 (0 no effect, 100 complete control), read-out: Oat, Wild plant response rating
Procedure, shortened: as §1

[12] = test system: barnyardgrass (Echinochloa crus-galli); experiment: Test B flooded paddy test; details: Echinochloa crus-galli, Flood, scale 0 to 100, read-out: Plant response rating, Barnyardgrass
Procedure, shortened: (§2)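 Plants were grown to the 2-leaf stage before treatment, then kept in a greenhouse for 13 to 15 days. Injury was rated visually against untreated controls on a 0 to 100 scale, where 0 is no effect and 100 is complete control.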

[13] = test system: duck salad (Heteranthera limosa); experiment: Test B flooded paddy test; details: Heteranthera limosa, Flood, scale 0 to 100, read-out: Plant response rating, Ducksalad
Procedure, shortened: as §2

rice (Oryza sativa) = experiment: Test B flooded paddy test; details: Oryza sativa, Flood, scale 0 to 100, read-out: Plant response rating, Rice
Procedure, shortened: as §2

[14] = test system: umbrella sedge (Cyperus difformis); experiment: Test B flooded paddy test; details: Cyperus difformis, Flood, scale 0 to 100, read-out: Plant response rating, Sedge, Umbrella
Procedure, shortened: as §2

[15] = post-emergence, Postemergence, scale 0 to 100 (0 no effect, 100 complete control), read-out: Surinam Grass plant response rating
[16] = post-emergence, Postemergence, scale 0 to 100 (0 no effect, 100 complete control), read-out: Cocklebur plant response rating
[17] = post-emergence, Postemergence, scale 0 to 100 (0 no effect, 100 complete control), read-out: Crabgrass plant response rating
[18] = post-emergence, Postemergence, scale 0 to 100 (0 no effect, 100 complete control), read-out: Foxtail, Giant plant response rating
[19] = post-emergence, Postemergence, scale 0 to 100 (0 no effect, 100 complete control), read-out: Morningglory plant response rating
[20] = post-emergence, Postemergence, scale 0 to 100 (0 no effect, 100 complete control), read-out: Velvetleaf plant response rating
[21] = post-emergence, Postemergence, read-out: Wheat plant response rating
[22] = pre-emergence, Preemergence, read-out: Plant response rating, Wheat

Nc1nc(-c2ccc(Br)cc2)nc(C(=O)O)c1Cl [Compound 95, 6-amino-2-(4-bromophenyl)-5-chloro-4-pyrimidinecarboxylic acid]
60%: pest or weed control at 125 g/ha ([7]; pre-emergence, Preemergence, scale 0 to 100 (0 no effect, 100 complete control), read-out: Plant response rating, Morningglory) | pest or weed control at 62 g/ha [11] | pest or weed control at 125 g/ha (wild oat (Avena fatua); 125 g ai/ha)
0%: pest or weed control at 125 g/ha ([12]; 125 g ai/ha) | plant injury at 125 g/ha (rice (Oryza sativa); 125 g ai/ha)
50%: pest or weed control at 62 g/ha ([1]; pre-emergence, Preemergence, scale 0 to 100, 0 no effect, 100 complete control, read-out: Plant response rating, Surinam Grass) | pest or weed control at 62 g/ha ([5]; pre-emergence, Preemergence, scale 0 to 100, 0 no effect, 100 complete control, read-out: Plant response rating, Foxtail, Giant) | plant injury at 125 g/ha [10, 21]
90%: pest or weed control at 125 g/ha [1, 15] | pest or weed control at 62 g/ha ([2]; 62 g ai/ha) | pest or weed control at 125 g/ha ([2]; 125 g ai/ha) | pest or weed control at 62 g/ha [3, 16] | pest or weed control at 125 g/ha [3, 16] | pest or weed control at 62 g/ha ([3]; pre-emergence, Preemergence, scale 0 to 100, 0 no effect, 100 complete control, read-out: Plant response rating, Cocklebur) | plant injury at 125 g/ha (corn (Zea mays); post-emergence, Postemergence, 125 g ai/ha, scale 0 to 100 (0 no effect, 100 complete control), read-out: Corn plant response rating) | pest or weed control at 125 g/ha ([5]; pre-emergence, Preemergence, scale 0 to 100 (0 no effect, 100 complete control), read-out: Plant response rating, Foxtail, Giant) | pest or weed control at 62 g/ha [7, 19] | pest or weed control at 125 g/ha ([13]; 125 g ai/ha) | pest or weed control at 125 g/ha ([14]; 125 g ai/ha) | pest or weed control at 500 g/ha ([14]; 500 g ai/ha)
100%: pest or weed control at 125 g/ha ([1]; pre-emergence, Preemergence, scale 0 to 100 (0 no effect, 100 complete control), read-out: Plant response rating, Surinam Grass) | pest or weed control at 125 g/ha ([3]; pre-emergence, Preemergence, scale 0 to 100 (0 no effect, 100 complete control), read-out: Plant response rating, Cocklebur) | pest or weed control at 125 g/ha ([4]; pre-emergence, Preemergence, scale 0 to 100 (0 no effect, 100 complete control), read-out: Plant response rating, Crabgrass) | pest or weed control at 62 g/ha ([6]; 62 g ai/ha) | pest or weed control at 125 g/ha ([6]; 125 g ai/ha) | pest or weed control at 125 g/ha [7, 19] | pest or weed control at 62 g/ha ([8]; 62 g ai/ha) | pest or weed control at 125 g/ha ([8]; 125 g ai/ha) | pest or weed control at 62 g/ha [9, 20] | pest or weed control at 125 g/ha [9, 20] | pest or weed control at 125 g/ha ([9]; pre-emergence, Preemergence, scale 0 to 100 (0 no effect, 100 complete control), read-out: Plant response rating, Velvetleaf) | pest or weed control at 500 g/ha ([13]; 500 g ai/ha)
40%: Corn plant response rating (crop injury, 0 = no effect, 100 = complete kill) at 62 g/ha (corn (Zea mays); pre-emergence, Preemergence, 62 g ai/ha, scale 0 to 100, 0 no effect, 100 complete control) | plant injury at 62 g/ha [10, 21] | plant injury at 500 g/ha (rice (Oryza sativa); 500 g ai/ha)
70%: plant injury at 62 g/ha [10, 22]
80%: pest or weed control at 62 g/ha [1, 15] | plant injury at 62 g/ha (corn (Zea mays); post-emergence, Postemergence, 62 g ai/ha, scale 0 to 100 (0 no effect, 100 complete control), read-out: Corn plant response rating) | Corn plant response rating (crop injury, 0 = no effect, 100 = complete kill) at 125 g/ha (corn (Zea mays); pre-emergence, Preemergence, 125 g ai/ha, scale 0 to 100 (0 no effect, 100 complete control)) | pest or weed control at 62 g/ha [4, 17] | pest or weed control at 125 g/ha [4, 17] | pest or weed control at 62 g/ha ([4]; pre-emergence, Preemergence, scale 0 to 100, 0 no effect, 100 complete control, read-out: Plant response rating, Crabgrass) | pest or weed control at 125 g/ha [5, 18] | pest or weed control at 62 g/ha [5, 18] | pest or weed control at 62 g/ha ([9]; pre-emergence, Preemergence, scale 0 to 100, 0 no effect, 100 complete control, read-out: Plant response rating, Velvetleaf) | plant injury at 125 g/ha [10, 22]
30%: pest or weed control at 62 g/ha ([7]; pre-emergence, Preemergence, scale 0 to 100, 0 no effect, 100 complete control, read-out: Plant response rating, Morningglory) | pest or weed control at 62 g/ha (wild oat (Avena fatua); 62 g ai/ha) | pest or weed control at 500 g/ha ([12]; 500 g ai/ha)
